According to ChEMBL document CHEMBL1147369, “Novel Diterpenoids from Taxus chinensis” (J Nat Prod, 1993):

Assay: Inhibition of tubulin microtubule disassembly

| ID50 | SMILES |
| --- | --- |
| 0.29 µM | CC(=O)O[C@H]1C(=O)[C@@]2(C)[C@H]([C@H](OC(=O)c3ccccc3)[C@]3(O)C[C@H](OC(=O)[C@H](O)[C@@H](NC(=O)c4ccccc4)c4ccccc4)C(C)=C1C3(C)C)[C@]1(OC(C)=O)CO[C@@H]1C[C@@H]2O |
| > 100 µM | CC(=O)O[C@H]1C[C@H]2OC[C@@]2(OC(C)=O)[C@H]2[C@H](OC(C)=O)[C@]3(C(C)(C)O)C[C@H](OC(=O)/C=C/c4ccccc4)C(C)=C3[C@@H](OC(=O)c3ccccc3)[C@H](OC(C)=O)[C@]12C |
| > 100 µM | CC(=O)O[C@H]1C[C@]2(C(C)(C)O)C(=C1C)[C@@H](OC(=O)c1ccccc1)[C@H](OC(=O)c1ccccc1)[C@]1(C)[C@@H](OC(C)=O)C[C@H]3OC[C@@]3(OC(C)=O)[C@H]1[C@@H]2OC(=O)c1ccccc1 |
| > 100 µM | C=C1[C@@H](O)C[C@H](OC(C)=O)[C@@]2(C)[C@@H](OC(C)=O)[C@H](OC(=O)c3ccccc3)C3=C(C)[C@@H](O)C[C@@]3(C(C)(C)O)[C@@H](OC(C)=O)[C@H]12 |
| > 100 µM | CC(=O)O[C@@]12CO[C@@H]1C[C@@H](O)[C@@]1(C)C(=O)C(=O)C3=C(C)[C@@H](O)C[C@@](O)([C@@H](OC(=O)c4ccccc4)[C@H]21)C3(C)C |
| > 100 µM | CC(=O)O[C@H]1C(=O)[C@]2(CO)[C@H](O)C[C@H]3OC[C@@]3(OC(C)=O)[C@H]2[C@H](OC(=O)c2ccccc2)[C@]2(O)C[C@H](O)C(C)=C1C2(C)C |
